# Key:
# Experiment in all cases: In vitro antibacterial evaluation: minimum inhibitory concentration (MIC), broth dilution method
# Assay type in all cases: cell-based
# [1] = system: Escherichia coli
# In short: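 An MIC is reported for each organism as the least concentration giving inhibition, using broth dilution over 64-0.06 μg/mL with a 5×10^5 CFU/mL inoculum.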
# [2] = system: Staphylococcus sp.
# In short: (§1)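 MIC read as lowest drug level preventing visible growth. Organisms at 5×10^5 CFU/mL were exposed to a 64-0.06 μg/mL dilution series in Muller-Hinton II […] following NCCLS broth dilution standard M7-A2.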
# [3] = system: Enterococcus sp.
# In short: as §1
# [4] = system: Streptococcus sp.
# In short: as §1
# [5] = broth dilution, 5×10^5 CFU/mL, 18 hours at 35° C.
# [6] = strain GC 4543, broth dilution, 18 hours at 35° C.
# [7] = strain GC 4546, broth dilution, 18 hours at 35° C.
# [8] = strain GC 4547, broth dilution, 18 hours at 35° C.
# [9] = strain GC 4548, broth dilution, 18 hours at 35° C.
# [10] = strain GC 4549, broth dilution, 18 hours at 35° C.
# [11] = strain GC 4551, broth dilution, 18 hours at 35° C.
# [12] = 5×10^5 CFU/mL, 18 hours at 35° C.
smiles,measurement,setting,value
CC(c1ccccc1)C1NC(=O)CNC(=O)C(CO)NC(=O)C(C(O)C2CNC(=N)N2C2OC(CO)C(O)C(O)C2O)NC(=O)C(C(O)C2CNC(=N)N2)NC(=O)C(Cc2ccc(OC3OC(CO)C(OC4OC5COC(c6ccc7c(c6)OCCO7)OC5C(O)C4O)C(O)C3O)cc2)NC1=O (stereo not drawn) [Example 149],MIC Escherichia coli (ATCC 25922),[1]; strain ATCC 25922,>64 mg/L
same,MIC Escherichia coli (GC 4559),[1]; strain GC 4559,64 mg/L
same,MIC Escherichi coli (GC 4560),[1]; strain GC 4560,<0.5 mg/L
same,MIC Coagulase Negative Staphylococcus (GC 4547),[2]; [5],1 mg/L
same,MIC Coagulase Negative Staphylococcus (GC 4548),[2]; [5],1 mg/L
same,MIC Coagulase Negative Staphylococcus (GC 4549),[2]; [5],1 mg/L
same,MIC Coagulase Negative Staphylococcus (GC 4551),[2]; [5],1 mg/L
same,MIC Coagulase Negative Staphylococcus (GC 6257),[2]; [5],1 mg/L
same,MIC Staphylococcus aureus (ATCC 29213),[2]; [5],2 mg/L
same,MIC Staphylococcus aureus (GC 1131),[2]; [5],2 mg/L
same,MIC Staphylococcus aureus (GC 3051),[2]; [5],2 mg/L
same,MIC Staphylococcus aureus (GC 3053),[2]; [5],4 mg/L
same,MIC Staphylococcus aureus (GC 4541),[2]; [5],2 mg/L
same,MIC Staphylococcus aureus (GC 4542),[2]; [5],2 mg/L
same,MIC Staphylococcus aureus (GC 4544),[2]; [5],2 mg/L
same,MIC Staphylococcus aureus (GC 4545),[2]; [5],2 mg/L
same,MIC Staphylococcus aureus-SMITH (GC 4543),[2]; [5],2 mg/L
same,MIC Staphylococcus haemolyticus (GC 4546),[2]; [5],1 mg/L
same,MIC Staphylococcus aureus (ATCC 29213),"[2]; strain ATCC 29213, broth dilution, 18 hours at 35° C.",2 mg/L
same,MIC Staphylococcus aureus (GC 1131),"[2]; strain GC 1131, broth dilution, 18 hours at 35° C.",2 mg/L
same,MIC Staphylococcus aureus (GC 3051),"[2]; strain GC 3051, broth dilution, 18 hours at 35° C.",2 mg/L
same,MIC Staphylococcus aureus (GC 3053),"[2]; strain GC 3053, broth dilution, 18 hours at 35° C.",4 mg/L
same,MIC Staphylococcus aureus (GC 4541),"[2]; strain GC 4541, broth dilution, 18 hours at 35° C.",2 mg/L
same,MIC Staphylococcus aureus (GC 4542),"[2]; strain GC 4542, broth dilution, 18 hours at 35° C.",2 mg/L
same,MIC Staphylococcus aureus-SMITH (GC 4543),[2]; [6],2 mg/L
same,MIC Staphylococcus aureus (GC 4544),"[2]; strain GC 4544, broth dilution, 18 hours at 35° C.",2 mg/L
same,MIC Staphylococcus aureus (GC 4545),"[2]; strain GC 4545, broth dilution, 18 hours at 35° C.",2 mg/L
same,MIC Staphylococcus haemolyticus (GC 4546),[2]; [7],1 mg/L
same,MIC Coagulase Negative Staphylococcus (GC 4547),[2]; [8],1 mg/L
same,MIC Coagulase Negative Staphylococcus (GC 4548),[2]; [9],1 mg/L
same,MIC Coagulase Negative Staphylococcus (GC 4549),[2]; [10],1 mg/L
same,MIC Coagulase Negative Staphylococcus (GC 4551),[2]; [11],1 mg/L
same,MIC Coagulase Negative Staphylococcus (GC 6257),"[2]; strain GC 6257, broth dilution, 18 hours at 35° C.",1 mg/L
same,MIC Enterococcus faecalis (ATCC 29212),[3]; strain ATCC 29212,8 mg/L
same,MIC Enterococcus faecalis (GC 2242),[3]; strain GC 2242,8 mg/L
same,MIC Enterococcus faecium (GC 2243),[3]; strain GC 2243,8 mg/L
same,MIC Enterococcus faecalis (GC 2691),[3]; strain GC 2691,8 mg/L
same,MIC Enterococcus faecalis (GC 3059),[3]; strain GC 3059,8 mg/L
same,MIC Enterococcus faecalis (GC 4552),[3]; strain GC 4552,8 mg/L
same,MIC Enterococcus faecalis (GC 4553),[3]; strain GC 4553,8 mg/L
same,MIC Enterococcus faecalis (GC 4554),[3]; strain GC 4554,8 mg/L
same,MIC Enterococcus faecium (GC 4556),[3]; strain GC 4556,8 mg/L
same,MIC Enterococcus faecium (GC 4557),[3]; strain GC 4557,2 mg/L
same,MIC Enterococcus avium (GC 4558),[3]; strain GC 4558,8 mg/L
same,MIC Enterococcus faecalis (GC 6189),[3]; strain GC 6189,8 mg/L
same,MIC Streptococcus pneumoniae (ATCC 6301),[4]; strain ATCC 6301,<0.5 mg/L
same,MIC Streptococcus pneumoniae (GC 1894),[4]; strain GC 1894,<0.5 mg/L
same,MIC Streptococcus pyogenes (GC 4563),[4]; strain GC 4563,<0.5 mg/L
same,MIC Streptococcus agalactiae (GC 4564),[4]; strain GC 4564,1 mg/L
same,MIC Streptococcus pneumoniae (GC 4565),[4]; strain GC 4565,2 mg/L
N=C1NCC(C(O)C2NC(=O)C(Cc3ccc(OC4OC(CO)C(OC5OC6COC7(OC6C6OC8(OC56)C5CC6CC(C5)CC8C6)C5CC6CC(C5)CC7C6)C(O)C4O)cc3)NC(=O)C(CC3CCCCC3)NC(=O)CNC(=O)C(CO)NC(=O)C(C(O)C3CNC(=N)N3C3OC(CO)C(O)C(O)C3O)NC2=O)N1 (stereo not drawn) [Example 106b],MIC Escherichia coli (ATCC 25922),[1]; [12],64 mg/L
same,MIC Escherichia coli (GC 4559),[1]; [12],32 mg/L
same,MIC Escherichia coli (GC 4560),[1]; [12],8 mg/L
same,MIC Staphylococcus aureus (ATCC 29213),[2]; strain ATCC 29213,8 mg/L
same,MIC Staphylococcus aureus (GC 1131),[2]; strain GC 1131,8 mg/L
same,MIC Staphylococcus aureus (GC 3051),[2]; strain GC 3051,8 mg/L
same,MIC Staphylococcus aureus (GC 3053),[2]; strain GC 3053,8 mg/L
same,MIC Staphylococcus aureus (GC 4541),[2]; strain GC 4541,16 mg/L
same,MIC Staphylococcus aureus (GC 4542),[2]; strain GC 4542,8 mg/L
same,MIC Staphylococcus aureus-SMITH (GC 4543),"[2]; strain GC 4543, 18 hours at 35° C.",8 mg/L
same,MIC Staphylococcus aureus-SMITH (GC 4543),[2]; [6],8 mg/L
same,MIC Staphylococcus aureus (GC 4544),[2]; strain GC 4544,16 mg/L
same,MIC Staphylococcus aureus (GC 4545),[2]; strain GC 4545,8 mg/L
same,MIC Staphylococcus haemolyticus (GC 4546),[2]; strain GC 4546,4 mg/L
same,MIC Staphylococcus haemolyticus (GC 4546),[2]; [7],4 mg/L
same,MIC Coagulase Negative Staphylococcus (GC 4547),[2]; strain GC 4547,8 mg/L
same,MIC Coagulase Negative Staphylococcus (GC 4547),[2]; [8],8 mg/L
same,MIC Coagulase Negative Staphylococcus (GC 4548),[2]; strain GC 4548,4 mg/L
same,MIC Coagulase Negative Staphylococcus (GC 4548),[2]; [9],4 mg/L
same,MIC Coagulase Negative Staphylococcus (GC 4549),[2]; strain GC 4549,4 mg/L
same,MIC Coagulase Negative Staphylococcus (GC 4549),[2]; [10],4 mg/L
same,MIC Coagulase Negative Staphylococcus (GC 4551),[2]; strain GC 4551,8 mg/L
same,MIC Coagulase Negative Staphylococcus (GC 4551),[2]; [11],8 mg/L
same,MIC Enterococccus avium (GC 4558),[3]; [5],4 mg/L
same,MIC Enterococccus faecalis (ATCC 29212),[3]; [5],8 mg/L
same,MIC Enterococccus faecalis (GC 2691),[3]; [5],16 mg/L
same,MIC Enterococccus faecalis (GC 3059),[3]; [5],16 mg/L
same,MIC Enterococccus faecalis (GC 4552),[3]; [5],8 mg/L
same,MIC Enterococccus faecalis (GC 4553),[3]; [5],8 mg/L
same,MIC Enterococccus faecalis (GC 4554),[3]; [5],16 mg/L
same,MIC Enterococccus faecalis (GC 6189),[3]; [5],8 mg/L
same,MIC Enterococccus faecium (GC 2243),[3]; [5],8 mg/L
same,MIC Enterococccus faecium (GC 4556),[3]; [5],8 mg/L
same,MIC Enterococccus faecium (GC 4557),[3]; [5],4 mg/L
same,MIC Enterococcus faecalis (GC 2242),[3]; [5],8 mg/L
same,MIC Streptococcus agalactiae (GC 4564),[4]; [5],0.5 mg/L
same,MIC Streptococcus pneumoniae (GC 1894),[4]; [5],<0.12 mg/L
same,MIC Streptococcus pneumoniae (GC 4565),[4]; [5],0.5 mg/L
same,MIC Streptococcus pneumonine (ATCC 6301),[4]; [5],0.5 mg/L
same,MIC Streptococcus pyogenes (GC 4563),[4]; [5],0.5 mg/L
